pIC50: −log10 of the molar value. Values joined by “and” are separate entries in the source; they are usually repeats but may differ in a detail not shown here. Identical values can stand only once. Counter-ions that a name gives are not always drawn. Like-named read-outs stand apart in the source and are kept apart here.
Experiments:
[1] = test system: P. berghei NY malaria parasite; assay: Antimalarial efficacies in vivo in mice
Description: Neither overt toxicity nor behavioral modification was observed due to drug administration in any of these mouse experiments.

[2] = test system: chloroquine-sensitive P. falciparum (NF54); assay: Antimalarial activity in vitro, [3H]hypoxanthine incorporation; format: cell-based; conditions: for pIC50: read-out: IC50
[3] = Stability in air (room temperature; accelerated aging at 60° C.); format: physicochemical
Description: The next step, shown in FIG. 2, in the production of the novel meso trioxane dimer 3 involves the substitution of the acetoxy group from the C-10 acetate 2 product to form the meso trioxane dimer 3 product. Inspiration for this bis-allylation of C-10 acetate 2 was based on the pioneering trioxane mono-allylations of Ziffer (Pu, Y. M.; Ziffer, H., Synthesis and Antimalarial Activities of 12β-Allyldeoxoartemisinin. J. Med. Chem. 1995, 38, 613-616) and O'Neill (O'Neill, et al., J. Med. Chem. 1999, 42, 5487-5493; and O'Neill, P. M., et al., J. Chem. Soc., Perkin Trans. 2001, 1, 2682-2689.) using allylsilane and based also on allylic bis-silane chemistry, see Rychnovsky, S. D., et. al., Tetrahedron Lett. 1999, 40, 41-44. The requisite allylic bis-silane is easily prepared in one step from the corresponding commercial allylic dichloride (Shown in FIG. 2); in the presence of fresh tin tetrachloride, the allylic bis-silane converts acetate 2 on gram scale into meso dimer 3, characterized by ^1H NMR spectroscopy as done before in structurally related trioxanes. This double substitution reaction undoubtedly proceeds sequentially via initial monoallylation, producing an intermediate C-10 allylic silane that then reacts with another molecule of trioxane acetate 2 to form the product dimer 3. […]

60 cell line panel = format: cell-based; conditions: leukemia cell line RPM 1-8226, melanoma cell line SK-MEL-5, renal cancer cell line ACHN
P. berghei = conditions: P. berghei-infected mice; cited from earlier work
[4] = test system: Ehrlich ascites tumor (EAT) cells; conditions: MTT assay; cited from earlier work
male CD-1 mice = assay: Acute toxicity study, single intraperitoneal injection; conditions: single ip, male CD-1 mice
Procedure: Each compound was dissolved in DMSO (Mallinkrodt Lot No. V18H15) to achieve a concentration of 200 mg/ml, and then 3 parts sesame oil (Spectrum Lot No. M10656) was added to make a working concentration of 50 mg/ml for dose administration. Stability, strength, and uniformity of the test articles in the dose formulations were not determined for this study.
Forty-two CD1 male mice purchased from Charles River Laboratories (Wilmington, Mass.) were used in the study. Mice were quarantined for 3 days prior to initiation of the study.
Mice were weighed and randomized into treatment groups on the day prior to the first dose administration. Due to limitations in the amount of available test materials, fewer mice in 1000 mg/kg groups were treated than specified in the protocol. The numbers of animals intended to be used and actually used with each compound at each dose level are shown in the table below; the only differences are in the high-dose groups.
Surviving animals were sacrificed on Day 8 and blood was collected for clinical pathology evaluations.
Mortality and morbidity were checked twice daily on weekdays and once daily on the weekend, see Table VI. Animals were weighed daily and prior to necropsy.

malaria parasite = assay: Efficacy Study Blood Schizontocidal Activity; format: in vivo; set-up: ED90: unit not given here
[5] = rat liver microsomes; cited from earlier work

Structure (SMILES)	pIC50 ([2]; Table I, NF54 strain)	IC50 [2]	other results
C[C@@H]1[C@H](OCc2ccc(C(=O)O)cc2)O[C@@H]2O[C@@]3(C)CC[C@@H]4[C@@H](C)CC[C@@H]1[C@]24OO3 [Artelinic Acid, artelinic acid, reference compound]			ED50 ([1]; route IV): 11.0 mg/kg × 4 and 5.6 mg/kg × 4; ED90 ([1]; route IV): 25.0 mg/kg × 4 and 43.0 mg/kg × 4; % Parasite Supression at 10 mg/kg ([1]; route IV): 54.7% and 42.4%
C=C(CC1OC2OC3(C)CCC4C(C)CCC(C1C)C24OO3)CC1OC2OC3(C)CCC4C(C)CCC(C1C)C24OO3 (stereo not drawn) [Compound 3, trioxane isobutene dimer]			pIC50 [2]: 7.62; stability in air and light in words [3]: stable in air and light at room temperature for at least six months
C[C@@H]1CC[C@H]2[C@@H](C)C(CC3(CC4OC5O[C@]6(C)CC[C@H]7[C@H](C)CC[C@@H]([C@H]4C)C57OO6)CO3)OC3O[C@]4(C)CCC1C32OO4 (stereo partly drawn) [Compound 6, bis-trioxane epoxide]	8.55		growth inhibition in words (60 cell line panel): less inhibitory
C[C@@H]1CC[C@H]2[C@@H](C)C(CC(=O)CC3OC4O[C@]5(C)CC[C@H]6[C@H](C)CC[C@@H]([C@H]3C)C46OO5)OC3O[C@]4(C)CCC1C32OO4 (stereo partly drawn) [Compound 7, bis-trioxane ketone]	9.04	below one nM	antimalarial potency in vitro relative to artemisinin [2]: 10 times; growth inhibition in words (60 cell line panel): less inhibitory
CC1CCC2C(C)C(CC(COC(=O)c3ccncc3)CC3OC4OC5(C)CCC6C(C)CCC(C3C)C46OO5)OC3OC4(C)CCC1C32OO4 (stereo not drawn) [Compound 8b, bis-trioxane primary alcohol isonicotinate]	8.77		
CC1CCC2C(C)C(CC(COC(=O)c3ccc[n+]([O-])c3)CC3OC4OC5(C)CCC6C(C)CCC(C3C)C46OO5)OC3OC4(C)CCC1C32OO4 (stereo not drawn) [Compound 15, bis-trioxane primary alcohol nicotinate N-oxide]	9.24	sub-nanomolar	
CC1CCC2C(C)C(CC(O)CC3OC4OC5(C)CCC6C(C)CCC(C3C)C46OO5)OC3OC4(C)CCC1C32OO4 (stereo not drawn) [Compound 17, bis-trioxane secondary alcohol]	9.18	below one nM	
CC1CCC2C(C)C(CC(O)(COC(=O)c3cc[n+]([O-])cc3)CC3OC4OC5(C)CCC6C(C)CCC(C3C)C46OO5)OC3OC4(C)CCC1C32OO4 (stereo not drawn) [Compound 18, bis-trioxane vicinal diol isonicotinate N-oxide]	9.47	sub-nanomolar	
CC1CCC2C(C)C(CC(O)(COCC(=O)O)CC3OC4OC5(C)CCC6C(C)CCC(C3C)C46OO5)OC3OC4(C)CCC1C32OO4 (stereo not drawn) [Compound 21, bis-trioxane β-hydroxy O-acetic acid]	8.36		
CC1CCC2C(C)C(CC(O)(COC(=O)c3ccc[n+]([O-])c3)CC3OC4OC5(C)CCC6C(C)CCC(C3C)C46OO5)OC3OC4(C)CCC1C32OO4 (stereo not drawn) [Compound 23, bis-trioxane vicinal diol nicotinate N-oxide]	9.40	sub-nanomolar	
CC1CCC2C(C)C(CC(CC3OC4OC5(C)CCC6C(C)CCC(C3C)C46OO5)OC(=O)c3cc[n+]([O-])cc3)OC3OC4(C)CCC1C32OO4 (stereo not drawn) [Compound 24, bis-trioxane secondary alcohol isonicotinate N-oxide]	9.38	sub-nanomolar	
CC1CCC2C(C)C(CC(CC3OC4OC5(C)CCC6C(C)CCC(C3C)C46OO5)OC(=O)c3ccc[n+]([O-])c3)OC3OC4(C)CCC1C32OO4 (stereo not drawn) [Compound 25, bis-trioxane secondary alcohol nicotinate N-oxide]	9.51	sub-nanomolar	
CCOP(=O)(OCC)OCC(CC1OC2OC3(C)CCC4C(C)CCC(C1C)C24OO3)CC1OC2OC3(C)CCC4C(C)CCC(C1C)C24OO3 (stereo not drawn) [Compound 26, bis-trioxane primary alcohol diethyl phosphoric acid triester]	9.13	sub-nanomolar	
COP(=O)(OC)OCC(CC1OC2OC3(C)CCC4C(C)CCC(C1C)C24OO3)CC1OC2OC3(C)CCC4C(C)CCC(C1C)C24OO3 (stereo not drawn) [Compound 27, bis-trioxane primary alcohol dimethyl phosphoric acid triester]	9.32	sub-nanomolar	
CC1CCC2C(C)C(OC(=O)CN(C)C)OC3OC4(C)CCC1C32OO4 (stereo not drawn) [Compound 32, α-dihydroartemisinin dimethylglycinate]	8.96		
CC1CCC2C(C)C(OC(=O)c3cc[n+]([O-])cc3)OC3OC4(C)CCC1C32OO4 (stereo not drawn) [Compound 33, α-dihydroartemisinin isonicotinate N-oxide]	9.09		
CC1CCC2C(C)C(CC(O)(CC(=O)O)CC3OC4OC5(C)CCC6C(C)CCC(C3C)C46OO5)OC3OC4(C)CCC1C32OO4 (stereo not drawn) [Compound 35, bis-trioxane tertiary alcohol carboxylic acid]	8.70		
COC(=O)OCC(CC1OC2OC3(C)CCC4C(C)CCC(C1C)C24OO3)CC1OC2OC3(C)CCC4C(C)CCC(C1C)C24OO3 (stereo not drawn) [Compound 36, bis-trioxane primary alcohol methyl carbonate]	8.77		
CCOC(=O)OCC(CC1OC2OC3(C)CCC4C(C)CCC(C1C)C24OO3)CC1OC2OC3(C)CCC4C(C)CCC(C1C)C24OO3 (stereo not drawn) [Compound 37, bis-trioxane primary alcohol ethyl carbonate]	8.55		
COS(=O)(=O)CC(O)(CC1OC2OC3(C)CCC4C(C)CCC(C1C)C24OO3)CC1OC2OC3(C)CCC4C(C)CCC(C1C)C24OO3 (stereo not drawn) [Compound 38, bis-trioxane tertiary alcohol methyl sulfonate]	6.70		
CC1CCC2C(C)C(CC(O)(CC3OC4OC5(C)CCC6C(C)CCC(C3C)C46OO5)CS(=O)(=O)N(C)C)OC3OC4(C)CCC1C32OO4 (stereo not drawn) [Compound 40, bis-trioxane tertiary alcohol N,N-dimethylsulfonamide]	9.14	sub-nanomolar	
CC1CCC2C(C)C(CC3(CC4OC5OC6(C)CCC7C(C)CCC(C4C)C57OO6)COC(=O)O3)OC3OC4(C)CCC1C32OO4 (stereo not drawn) [Compound 41, bis-trioxane vicinal diol cyclic carbonate]	9.23	sub-nanomolar	
CC1CCC2C(C)C(CC3(CC4OC5OC6(C)CCC7C(C)CCC(C4C)C57OO6)COS(=O)(=O)O3)OC3OC4(C)CCC1C32OO4 (stereo not drawn) [Compound 42, bis-trioxane vicinal diol cyclic sulfate]	7.72		
C[C@H]1[C@@H](O[C@H]2O[C@@H]3O[C@@]4(C)CC[C@H]5[C@H](C)CC[C@@H]([C@H]2C)[C@@]35OO4)O[C@@H]2O[C@@]3(C)CC[C@H]4[C@H](C)CC[C@@H]1[C@@]24OO3 [II-7, dihydroartemisinin condensation by-product]			SD90 (P. berghei): 10 mg/kg; pIC50 [4]: 5.85
CC1=CO[C@@H]2O[C@]3(C)CC[C@H]4[C@H](C)CC[C@@H]1[C@@]24OO3 [III]			activity in words (P. berghei): inactive
C[C@H]1[C@H](OC(=O)CCC(=O)[O-])O[C@@H]2O[C@@]3(C)CC[C@H]4[C@H](C)CC[C@@H]1[C@@]24OO3.[Na+] [Sodium Artesunate, sodium artesunate, reference compound]			Mortality (male CD-1 mice; 125 mg/kg): No death; Mortality (male CD-1 mice; 250 mg/kg): 1/3 dead; Mortality (male CD-1 mice; 500 mg/kg): 3/3 dead; ED50 (malaria parasite; Route: IV): 5 mg/kg; ED90 (malaria parasite; Route: IV): 40.0; ED50 (malaria parasite; Route: PO): 6 mg/kg; ED90 (malaria parasite; Route: PO): 60.0; ED50 ([1]; route PO): 10.0 mg/kg × 4 and 5.5 mg/kg × 4; ED90 ([1]; route PO): 39.0 mg/kg × 4 and 70.0 mg/kg × 4; % Parasite Supression at 10 mg/kg ([1]; route PO): 52.8% and 50.9%
CCO[C@H]1O[C@@H]2O[C@@]3(C)CC[C@H]4[C@H](C)CC[C@@H]([C@H]1C)[C@@]24OO3 [arteether]			conversion into dihydroartemisinin [5]: rapidly converted
